In series [1] the target is T1, α1β2γ2 GABA receptors (α1β2γ2-CHO-TRex stable cell strain) (Homo sapiens, UniProt P14867+P47870).
T1 construct: expressed in transfected cells
The series is described as follows: Whole-cell patch clamp, intrasynaptic functional activity (positive allosteric regulation of GABA-induced current). The format is cell-based. Particulars: patch clamp -60 mV, GABA at EC10-20, α1β2γ2-CHO-TRex cells. As for the experimental part:
(§1) The α4β3δ-HEK-FlpIn-TRex stable cell strain was cultured in DMEM+10% FBS complete culture medium, with the selective antibiotics being 10 μg/mL Blasticidin, 100 µg/mL Zeocin, 100 µg/mL Hygromycin, and 0.2 μg/mL Puromycin. The α1β2γ2-CHO-TRex stable cell strain was cultured in DMEM/F12+10% FBS complete culture medium, with the selective antibiotics being 10 μg/mL Blasticidin, 100 μg/mL Zeocin, 300 μg/mL Hygromycin, and […] Puromycin.
(§2) The day before the patch clamp experiment, cells were seeded onto 12 mm polylysine-coated coverslips and then cultured in 35 mm culture dishes, and tetracycline ([…]) was added to induce the expression of GABA receptors. The extracellular fluid had the following composition (in mM): 140 NaCl, 3 KCl, 1.5 MgCl2, 2 CaCl2, 10 HEPES, and 10 Glucose. After thorough mixing, NaOH was added to adjust the pH to 7.4, and sucrose was added to adjust the osmotic pressure to 300-320 mOsm. The fluid was stored at 4° C. The electrode internal solution had the following composition (in mM): 145 KCl, 1 MgCl2, 5 EGTA, 10 HEPES, and 5 MgATP. After thorough mixing, KOH was added to adjust the pH to 7.3, and sucrose was added to adjust the osmotic pressure to 290-300 mOsm. The solution was filtered through a […] before use.
(§3) Whole-cell patch clamp recording was mainly employed in this experiment. The membrane potential was clamped at −60 mV, and receptors were activated using GABA at an EC10-20 concentration ([…]). The test compounds were dissolved in 0.1% DMSO, and perfusion was performed for 30 s prior to GABA stimulation. Finally, the positive allosteric regulating effects of the test compounds on α1β2γ2 or α4β3δ were determined.
(§4) The experimental result for each concentration was expressed as a fold increase in the GABA-induced current caused by the compound. […] At least 5 concentrations are tested to obtain a complete EC50 curve and EC50 values. All experiments were repeated on no less than 3 cells, and data processing was completed using GraphPad prism software. The dose-response curves were fitted using the Hill equation, and the half-maximal activating concentration EC50 and Emax were finally obtained.
In general terms: The patch-clamp technique gives a direct electrical read-out from membranes.

In series [2] the target is T2, α4β3δ GABA receptors (α4β3δ-HEK-FlpIn-TRex stable cell strain) (Homo sapiens, UniProt P28472+P48169).
T2 construct: expressed in transfected cells
T2 sequence (P48169 36-554): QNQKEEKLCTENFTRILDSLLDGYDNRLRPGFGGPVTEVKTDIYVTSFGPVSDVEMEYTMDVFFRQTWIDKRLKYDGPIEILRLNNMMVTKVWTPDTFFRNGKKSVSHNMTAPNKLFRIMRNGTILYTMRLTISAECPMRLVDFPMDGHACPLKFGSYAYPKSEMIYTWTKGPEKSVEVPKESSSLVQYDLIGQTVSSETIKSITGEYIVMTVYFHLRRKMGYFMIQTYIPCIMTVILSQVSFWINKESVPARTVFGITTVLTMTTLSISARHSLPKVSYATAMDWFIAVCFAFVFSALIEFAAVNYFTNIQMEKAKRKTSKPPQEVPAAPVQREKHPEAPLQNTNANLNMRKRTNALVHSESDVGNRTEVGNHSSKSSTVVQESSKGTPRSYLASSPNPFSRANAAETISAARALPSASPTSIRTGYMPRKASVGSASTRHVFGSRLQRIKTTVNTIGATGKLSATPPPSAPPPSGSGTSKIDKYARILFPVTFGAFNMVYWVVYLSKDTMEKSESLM
T2 sequence (P28472 26-473): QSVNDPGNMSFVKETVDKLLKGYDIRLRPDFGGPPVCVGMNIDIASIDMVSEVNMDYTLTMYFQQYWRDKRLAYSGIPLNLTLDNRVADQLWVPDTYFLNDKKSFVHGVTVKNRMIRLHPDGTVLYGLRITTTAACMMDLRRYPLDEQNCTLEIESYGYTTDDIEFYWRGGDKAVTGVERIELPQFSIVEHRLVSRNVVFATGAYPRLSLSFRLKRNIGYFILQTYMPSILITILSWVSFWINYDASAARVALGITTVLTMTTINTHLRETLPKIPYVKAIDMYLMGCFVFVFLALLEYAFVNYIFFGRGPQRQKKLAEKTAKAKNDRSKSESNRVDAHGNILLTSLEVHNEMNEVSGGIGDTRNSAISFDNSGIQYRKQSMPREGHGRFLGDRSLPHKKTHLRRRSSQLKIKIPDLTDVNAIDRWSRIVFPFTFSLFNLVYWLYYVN
T2 sequence (O14764 25-452 partner): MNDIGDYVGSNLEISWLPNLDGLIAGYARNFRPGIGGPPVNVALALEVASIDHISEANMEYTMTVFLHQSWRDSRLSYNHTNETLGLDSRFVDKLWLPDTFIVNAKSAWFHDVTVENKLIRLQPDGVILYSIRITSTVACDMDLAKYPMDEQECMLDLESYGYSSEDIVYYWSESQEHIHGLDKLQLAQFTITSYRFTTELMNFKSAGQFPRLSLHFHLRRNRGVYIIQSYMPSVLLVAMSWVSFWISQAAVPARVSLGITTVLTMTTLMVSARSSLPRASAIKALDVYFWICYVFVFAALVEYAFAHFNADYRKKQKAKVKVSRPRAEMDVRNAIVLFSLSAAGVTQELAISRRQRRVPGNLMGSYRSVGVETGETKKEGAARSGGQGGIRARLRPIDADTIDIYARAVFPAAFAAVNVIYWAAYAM
The series is described as follows: Whole-cell patch clamp, extrasynaptic functional activity (positive allosteric regulation of GABA-induced current). As to conditions: patch clamp -60 mV, GABA at EC10-20, α4β3δ-HEK-FlpIn-TRex cells. The format is cell-based. As for the experimental part: as §1, §2, §3, §4

Series [3] is described as follows: In vitro liver microsomal stability assay, rat. The series is classed as in vitro ADME. As to conditions: for CLint scaled at 1 µM / half-life at 1 µM / microsomal CLint at 1 µM / T1/2: Rat liver microsomes; for Remaining amount % at 60 min: Rat liver microsomes 0.5 mg/mL, NADPH; for microsomal CLint at 1 µM: read-out: CLint(mic). As for the experimental part: (§5) 1) Preparation of working solutions of test samples: The test samples were diluted with acetonitrile to 100 M.
(§6) 2) Preparation of a working solution of liver microsomes: liver microsomes were diluted with 100 mM phosphate-buffered saline to 0.56 mg/mL.
(§7) 3) Preparation of a working solution of reduced nicotinamide adenine dinucleotide (NADPH): A proper amount of NADPH was weighed out and diluted with phosphate-buffered saline to 20 mM, and an equal volume of a 60 mM MgCl2 solution was added.
(§8) 4) Preparation of a stop solution: Tolbutamide was diluted with acetonitrile to 20 ng/mL, serving as a stop solution containing an internal standard.
(§9) 1) Incubation anti-adsorption EP tubes were prepared and labeled with species, test/control sample, time points (0, 5, 10, 20, 30, 60 min, Blank60, and NCF60), etc.
(§10) 2) 2 L of test or control sample working solution, diluted with acetonitrile to 100 M, and 178 L of liver microsome working solution were added to each tube. For the Blank60 tube, 2 L of acetonitrile was added instead of a test sample. The tubes were pre-incubated in a 37° C. water bath for about 10 min, with each sample tested in triplicate.
(§11) 3) After the pre-incubation was complete, 20 L of NADPH working solution was added to each tube except for the 0 min and NCF60 tubes to start reactions, and 20 L of phosphate-buffered saline (containing 30 mM MgCl2) was added to the NCF60 tube. In the incubation system, the final concentrations of the test and control samples were 1 M, the final concentration of liver microsomes was 0.5 mg/mL, the final concentration of NADPH was 1 mM, and the final concentration of MgCl2 was 3 mM.
(§12) 4) For the 0 min sample, 600 L of stop solution was added before adding the NADPH working solution. After each sample was incubated for its respective time, 600 L of stop solution was added to stop the reaction.
(§13) 5) After the reaction was stopped, each sample was vortexed for 30 s and then centrifuged at 13,500 rpm for 10 min. 100 L of the supernatant was transferred to an EP tube, and 100 L Milli-Q water was added. The mixture was well mixed by vortexing and analyzed by LC-MS/MS.
(§14) 6) Testosterone and dextromethorphan were used as positive control samples under the same conditions to assess the stability and reliability of the system.
(§15) Parameters of the test samples, including their half-lives, intrinsic clearance rates in liver microsomes, and hepatic intrinsic clearance rates, were calculated based on the percentage of test sample remaining.
Background: Liver microsomes are a subcellular fraction often used to study metabolism.

Series [4] in a line: In vitro liver microsomal stability assay, human. The format is in vitro ADME. Particulars: for CLint scaled at 1 µM / half-life at 1 µM / microsomal CLint at 1 µM / T1/2: Human liver microsomes; for Remaining amount % at 60 min: Human liver microsomes 0.5 mg/mL, NADPH; for microsomal CLint at 1 µM: read-out: CLint(mic). How it is done:
as §5, §6, §7, §8, §9, §10, §11, §12, §13, §14, §15

T1 sequence (P14867 28-456): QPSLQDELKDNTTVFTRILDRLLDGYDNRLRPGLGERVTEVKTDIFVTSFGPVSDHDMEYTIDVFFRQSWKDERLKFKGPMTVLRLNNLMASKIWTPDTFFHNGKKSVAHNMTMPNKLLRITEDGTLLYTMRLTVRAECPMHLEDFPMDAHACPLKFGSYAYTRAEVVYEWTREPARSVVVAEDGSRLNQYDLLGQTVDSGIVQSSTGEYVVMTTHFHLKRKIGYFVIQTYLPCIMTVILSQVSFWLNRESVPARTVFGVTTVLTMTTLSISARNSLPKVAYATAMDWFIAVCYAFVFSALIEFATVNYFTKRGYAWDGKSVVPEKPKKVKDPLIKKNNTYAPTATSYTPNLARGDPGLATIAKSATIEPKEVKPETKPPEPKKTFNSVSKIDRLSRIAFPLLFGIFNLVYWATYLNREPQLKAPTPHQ
T1 sequence (P47870 25-512 limits assumed): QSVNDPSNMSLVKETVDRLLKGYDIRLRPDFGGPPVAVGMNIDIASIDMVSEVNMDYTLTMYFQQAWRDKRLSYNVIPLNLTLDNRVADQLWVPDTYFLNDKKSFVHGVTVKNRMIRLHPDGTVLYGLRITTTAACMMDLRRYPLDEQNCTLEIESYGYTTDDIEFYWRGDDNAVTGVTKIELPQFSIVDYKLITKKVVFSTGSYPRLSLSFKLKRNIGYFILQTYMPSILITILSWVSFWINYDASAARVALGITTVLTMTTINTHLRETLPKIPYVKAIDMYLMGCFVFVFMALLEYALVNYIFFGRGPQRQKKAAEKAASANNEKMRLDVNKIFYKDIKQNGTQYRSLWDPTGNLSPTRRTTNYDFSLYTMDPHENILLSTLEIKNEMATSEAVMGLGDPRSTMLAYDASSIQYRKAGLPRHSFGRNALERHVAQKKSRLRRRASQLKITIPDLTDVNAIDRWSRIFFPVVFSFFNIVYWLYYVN
T1 sequence (P18507 40-475 partner): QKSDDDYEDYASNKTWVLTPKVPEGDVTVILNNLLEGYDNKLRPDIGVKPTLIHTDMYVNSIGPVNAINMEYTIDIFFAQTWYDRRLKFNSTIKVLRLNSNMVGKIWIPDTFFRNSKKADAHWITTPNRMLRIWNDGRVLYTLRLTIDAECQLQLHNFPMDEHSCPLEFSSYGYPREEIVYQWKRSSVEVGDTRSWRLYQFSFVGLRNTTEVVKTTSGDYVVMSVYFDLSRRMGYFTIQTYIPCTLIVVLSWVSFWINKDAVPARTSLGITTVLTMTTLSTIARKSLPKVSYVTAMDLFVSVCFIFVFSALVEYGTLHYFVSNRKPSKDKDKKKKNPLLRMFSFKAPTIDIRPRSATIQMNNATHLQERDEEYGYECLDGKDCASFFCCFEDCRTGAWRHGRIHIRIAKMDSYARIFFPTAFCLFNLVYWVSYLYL

As a reminder, the EC50 is the concentration giving half of the maximal effect. Lower therefore signals a more potent agent. What is called Emax is the maximal effect, on the per cent scale that the assay sets. As usually defined, the CLint scaled is the rate of metabolic loss divided by the concentration. Low readings indicate slow turnover, high ones rapid turnover. One may read the half-life as the time needed for the level to fall by half in the phase considered. Low readings indicate fast loss, high ones slow loss. In series [1], `C[C@@]1(O)CC[C@H]2[C@H](CC[C@@H]3[C@@H]2CC[C@]2(C)[C@@H](C(=O)Cn4cnn(-c5cccc(F)c5)c4=O)CC[C@@H]32)C1` [Compound 1] showed an EC50 of 56 nM and an Emax of 566%. In series [2], this compound yielded a concentration for a half-maximal effect (EC50) of 10 nM and an Emax of 440%. In series [3], the CLint scaled at 1 µM was 43.6 mL/min/kg, the half-life at 1 µM was 57.3 min, the “Remaining amount % at 60 min” value is recorded as 44.5% and the microsomal CLint at 1 µM worked out at 24.2 µL/min/mg. In series [4], the CLint scaled at 1 µM is 3.97 mL/min/kg, the half-life at 1 µM came out at 330 min, the “Remaining amount % at 60 min” value was found to be 89.0% and the microsomal CLint at 1 µM stood at 4.2 µL/min/mg.
In turn, `C[C@@]1(O)CC[C@H]2[C@H](CC[C@@H]3[C@@H]2CC[C@]2(C)[C@@H](C(=O)Cn4cnn(-c5cccnc5)c4=O)CC[C@@H]32)C1` [Compound 2] yielded an Emax in series [1] of 773%. In addition, in series [2], the Emax stood at 391%. Moreover, in series [3], the CLint scaled at 1 µM came to 187 mL/min/kg, the T1/2 worked out at 11.3 min, the “Remaining amount % at 60 min” value is listed as 11.25% and the microsomal CLint at 1 µM was 104 µL/min/mg. Moreover, in series [4], the intrinsic metabolic clearance (CLint scaled) at 1 µM turned out to be 52 mL/min/kg, the T1/2 was found to be 24.1 min, the “Remaining amount % at 60 min” value is recorded as 18.57% and the microsomal CLint at 1 µM was found to be 57 µL/min/mg.
Take `C[C@@]1(O)CC[C@H]2[C@H](CC[C@@H]3[C@@H]2CC[C@]2(C)[C@@H](C(=O)Cn4cnn(-c5ccccc5)c4=O)CC[C@@H]32)C1` [Compound 3]: in series [1], the response was half-maximal at 90 nM (EC50) and the Emax amounted to 430%. Also, in series [2], the EC50 stood at 29 nM and the Emax was found to be 490%. In series [3], the CLint scaled at 1 µM amounted to 94 mL/min/kg, the half-life at 1 µM came out at 26.5 min, the “Remaining amount % at 60 min” value is on record as 51.77% and the microsomal CLint at 1 µM is 52 µL/min/mg. In addition, in series [4], the CLint scaled at 1 µM came out at 11 mL/min/kg, the half-life at 1 µM turned out to be 118 min, the “Remaining amount % at 60 min” value is listed as 70.25% and the microsomal CLint at 1 µM amounted to 12 µL/min/mg.
Regarding `C[C@@]1(O)CC[C@H]2[C@H](CC[C@@H]3[C@@H]2CC[C@]2(C)[C@@H](C(=O)Cn4cnn(-c5ccc(F)cc5)c4=O)CC[C@@H]32)C1` [Compound 4], in series [1], the EC50 came out at 220 nM and the Emax came to 390%. Also, in series [2], the EC50 came out at 170 nM and the Emax amounted to 410%. Further, in series [3], the CLint scaled at 1 µM was 93 mL/min/kg, the half-life at 1 µM stood at 27 min, the “Remaining amount % at 60 min” value came to 37.09% and the microsomal CLint at 1 µM turned out to be 51 µL/min/mg. In series [4], the CLint scaled at 1 µM turned out to be 13 mL/min/kg, the half-life at 1 µM came to 96.3 min, the “Remaining amount % at 60 min” value was 64.0% and the microsomal CLint at 1 µM is 14 µL/min/mg.
In series [1], `COc1cccc(-n2ncn(CC(=O)[C@H]3CC[C@H]4[C@@H]5CC[C@@H]6C[C@](C)(O)CC[C@@H]6[C@H]5CC[C@]34C)c2=O)c1` [Compound 5] yielded an EC50 of 26 nM and an Emax of 410%. In addition, in series [2], it took 21 nM to reach a half-maximal effect (EC50) and the Emax was 570%. In addition, in series [3], the CLint scaled at 1 µM was found to be 176 mL/min/kg, the half-life at 1 µM is 14.1 min, the “Remaining amount % at 60 min” value was determined as 14.19% and the microsomal CLint at 1 µM came out at 98 µL/min/mg. Further, in series [4], the CLint scaled at 1 µM is 24 mL/min/kg, the half-life at 1 µM came to 52.5 min, the “Remaining amount % at 60 min” value stood at 43.53% and the microsomal CLint at 1 µM came to 26 µL/min/mg.
As to `Cn1ncn(CC(=O)[C@H]2CC[C@H]3[C@@H]4CC[C@@H]5C[C@](C)(O)CC[C@@H]5[C@H]4CC[C@]23C)c1=O` [Compound 6], in series [1], the concentration giving a half-maximal response (EC50) came out at 444 nM and the Emax came out at 242%. Further, in series [2], the EC50 amounted to 305 nM and the Emax is 497%. For the same compound, in series [3], the CLint scaled at 1 µM was 117 mL/min/kg, the half-life at 1 µM is 21.3 min, the “Remaining amount % at 60 min” value is given as 15.45% and the microsomal CLint at 1 µM worked out at 65 µL/min/mg. Further, in series [4], the CLint scaled at 1 µM amounted to 10 mL/min/kg, the half-life at 1 µM amounted to 126 min, the “Remaining amount % at 60 min” value came out at 72.92% and the microsomal CLint at 1 µM was 11 µL/min/mg.
In the case of `C[C@@]1(O)CC[C@H]2[C@H](CC[C@@H]3[C@@H]2CC[C@]2(C)[C@@H](C(=O)Cn4ncn(-c5ccc(F)cc5)c4=O)CC[C@@H]32)C1` [Compound 9], in series [1], a half-maximal effect (EC50) was put at 12.4 nM and the maximum response (Emax) is 294%. In series [2], this compound displayed a concentration giving a half-maximal response (EC50) of 148 nM and an Emax of 428%. Besides, in series [3], the CLint scaled at 1 µM came out at 239 mL/min/kg, the T1/2 worked out at 10.3 min, the “Remaining amount % at 60 min” value was 4.19% and the microsomal CLint at 1 µM was found to be 133 µL/min/mg. Also, in series [4], the CLint scaled at 1 µM stood at 38 mL/min/kg, the T1/2 is 32.8 min, the “Remaining amount % at 60 min” value was found to be 24.73% and the microsomal CLint at 1 µM was determined as 42 µL/min/mg.
`C[C@@]1(O)CC[C@H]2[C@H](CC[C@@H]3[C@@H]2CC[C@]2(C)[C@@H](C(=O)Cn4c(=O)n(-c5ccccc5)c5ccccc54)CC[C@@H]32)C1` [Compound 13]: the maximal response (Emax) in series [1] came to 305%; in series [2], 470%.
With `C[C@@]1(O)CC[C@H]2[C@H](CC[C@@H]3[C@@H]2CC[C@]2(C)[C@@H](C(=O)Cn4cnn(-c5cc(F)ccn5)c4=O)CC[C@@H]32)C1` [Compound 35], in series [1], the EC50 is 340 nM and the Emax is 446%. In series [2], a half-maximal response (EC50) required 68 nM and the Emax turned out to be 720%.
Turning to `C[C@@]1(O)CC[C@H]2[C@H](CC[C@@H]3[C@@H]2CC[C@]2(C)[C@@H](C(=O)Cn4cnn(-c5ccnc(C(F)F)c5)c4=O)CC[C@@H]32)C1` [Compound 37], the Emax in series [1] was 600%; in series [2], 432%.
The matching figures for `Cc1cc(-n2ncn(CC(=O)[C@H]3CC[C@H]4[C@@H]5CC[C@@H]6C[C@](C)(O)CC[C@@H]6[C@H]5CC[C@]34C)c2=O)cc(C)n1` [Compound 40]: 691% and 563%.
For `C[C@@]1(O)CC[C@@]2(C)[C@@H](CC[C@@H]3[C@@H]2CC[C@]2(C)[C@@H](C(=O)Cn4cnn(-c5ccnc(F)c5)c4=O)CC[C@@H]32)C1` [Compound 42], the EC50 in series [1] came to 280 nM; in series [2] it was 143 nM. The Emax was determined as 736% in series [1] and 507% in series [2].
